We go through 29 compounds from US10758534B2 (Vertex Pharmaceuticals Incorporated, priority 2014, dated 2020).

The target in the assay is T1, F508del (Homo sapiens, UniProt P13569, DEL508-508).
T1 construct: expressed in transfected cells
Briefly: Protocol 2: FRET membrane potential optical assay (VIPR), identification of correction compounds. Type of assay: cell-based. The procedure, abridged: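 Corrector readout: membrane-potential FRET (CC2-DMPE donor, DiSBAC2(3) acceptor) on VIPR II after Cl⁻-free gluconate bath with 10 μM forskolin and 20 μM genistein. Before this, F508del-expressing NIH3T3 cells were exposed to test compound for 16 h at 37 °C without serum; 27 °C incubation served as temperature-correction control.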

Setting [1] is: F508del CFTR modulator activity, compounds of Table 1, read-out: EC30.
Where [2] appears, read: Table 3, compounds of Table 1 as modulators of CFTR activity, protocol not stated.

Like-named read-outs stand apart in the source and are kept apart here.

T1 sequence (P13569 with tags, fused parts or gaps DEL508-508): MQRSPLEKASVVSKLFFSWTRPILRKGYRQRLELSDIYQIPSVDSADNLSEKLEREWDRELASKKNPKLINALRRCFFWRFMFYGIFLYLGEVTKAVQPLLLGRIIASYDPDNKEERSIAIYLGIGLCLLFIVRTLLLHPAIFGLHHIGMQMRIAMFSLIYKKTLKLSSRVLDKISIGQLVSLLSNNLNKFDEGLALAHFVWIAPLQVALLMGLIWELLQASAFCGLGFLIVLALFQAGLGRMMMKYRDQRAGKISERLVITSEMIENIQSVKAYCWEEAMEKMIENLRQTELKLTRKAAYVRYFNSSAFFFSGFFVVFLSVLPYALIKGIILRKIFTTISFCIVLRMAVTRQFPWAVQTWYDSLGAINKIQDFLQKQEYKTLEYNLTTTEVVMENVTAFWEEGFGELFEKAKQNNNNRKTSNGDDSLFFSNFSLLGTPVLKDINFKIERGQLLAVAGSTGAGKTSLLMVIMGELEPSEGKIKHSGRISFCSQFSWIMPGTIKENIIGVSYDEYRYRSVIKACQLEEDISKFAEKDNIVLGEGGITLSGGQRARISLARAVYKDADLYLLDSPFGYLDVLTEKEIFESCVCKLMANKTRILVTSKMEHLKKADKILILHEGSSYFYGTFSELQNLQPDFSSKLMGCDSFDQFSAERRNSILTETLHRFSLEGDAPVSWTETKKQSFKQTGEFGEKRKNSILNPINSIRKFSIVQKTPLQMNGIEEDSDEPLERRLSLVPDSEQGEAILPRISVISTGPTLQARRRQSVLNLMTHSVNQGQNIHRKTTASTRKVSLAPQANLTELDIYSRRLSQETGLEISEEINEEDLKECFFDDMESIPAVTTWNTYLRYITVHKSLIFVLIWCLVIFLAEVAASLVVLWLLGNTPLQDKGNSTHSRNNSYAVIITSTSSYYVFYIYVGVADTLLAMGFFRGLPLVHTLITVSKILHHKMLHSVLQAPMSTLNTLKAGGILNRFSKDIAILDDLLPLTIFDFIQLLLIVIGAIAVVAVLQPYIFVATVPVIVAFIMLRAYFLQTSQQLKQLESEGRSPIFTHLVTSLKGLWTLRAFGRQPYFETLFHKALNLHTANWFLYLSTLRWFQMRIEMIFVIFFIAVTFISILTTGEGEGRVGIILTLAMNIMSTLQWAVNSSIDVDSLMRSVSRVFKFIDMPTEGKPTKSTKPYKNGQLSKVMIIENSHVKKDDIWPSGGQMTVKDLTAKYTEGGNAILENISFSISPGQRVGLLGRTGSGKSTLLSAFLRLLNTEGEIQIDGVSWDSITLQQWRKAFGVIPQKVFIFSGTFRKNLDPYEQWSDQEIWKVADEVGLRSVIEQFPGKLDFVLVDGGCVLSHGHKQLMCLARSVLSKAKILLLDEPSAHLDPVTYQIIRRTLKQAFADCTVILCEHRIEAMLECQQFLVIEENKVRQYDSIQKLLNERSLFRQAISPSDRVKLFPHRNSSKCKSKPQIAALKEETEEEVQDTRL

`CC1CN(c2ncccc2C(=O)NS(=O)(=O)c2cccc(N3CC[C@H](F)C3)n2)C(C)(C)C1` (stereo partly drawn) [Compound 2393, N—[[6-[(3S)-3-fluoropyrrolidin-1-yl]-2-pyridyl]sulfonyl]-2-(2,2,4-trimethylpyrrolidin-1-yl)pyridine-3-carboxamide]: the EC30 under setting [1] is 3 to 10 µM.

On to `Cc1cc(C)c(Oc2nc(-c3ccc(C(F)(F)F)nc3)ccc2C(=O)NS(=O)(=O)c2cccc(N)n2)c(C)c1` [Compound 132, N-[(6-amino-2-pyridyl)sulfonyl]-6-[6-(trifluoromethyl)-3-pyridyl]-2-(2,4,6-trimethylphenoxy)pyridine-3-carboxamide], for which, under setting [2], the EC30 entry is given as “+++ (“+++” means <3 uM)”. The same measure, in the same setting: then `CC(C)(C)c1ccc(C(=O)NS(=O)(=O)c2cccc(N)n2)c(OC2CCCCC2)n1` [Compound 649, N-[(6-amino-2-pyridyl)sulfonyl]-6-tert-butyl-2-(cyclohexoxy)pyridine-3-carboxamide], with “++ (“++” means between 3 uM and 10 uM)”; and `Cc1cc(C)c(-c2nc(C(C)(C)C)ccc2C(=O)NS(=O)(=O)c2cccc(N)c2)c(C)c1` [Compound 26, N-(3-aminophenyl)sulfonyl-6-tert-butyl-2-(2,4,6-trimethylphenyl)pyridine-3-carboxamide], with “++ (“++” means between 3 uM and 10 uM)”; and `Cc1cc(C)c(Cn2nc(C(C)(C)C)cc2C(=O)NS(=O)(=O)c2ccccc2C#N)c(C)c1` [Compound 266, 5-tert-butyl-N-(2-cyanophenyl)sulfonyl-2-[(2,4,6-trimethylphenyl)methyl]pyrazole-3-carboxamide], with “+++ (“+++” means <3 uM)”. As to `CC1CN(c2ncccc2C(=O)NS(=O)(=O)c2cccc(Oc3cc(F)ccc3Cl)n2)C(C)(C)C1` (centres unmarked) [Compound 2591, N—[[6-(2-chloro-5-fluoro-phenoxy)-2-pyridyl]sulfonyl]-2-(2,2,4-trimethylpyrrolidin-1-yl)pyridine-3-carboxamide], the EC30 under setting [1] is < 3 µM. For the compound `C[C@@H]1CN(c2nc(-c3ccc4c(c3)OCCO4)ccc2C(=O)NS(=O)(=O)c2cccnc2N)C(C)(C)C1` [Compound 2522, N-[(2-amino-3-pyridyl)sulfonyl]-6-(2,3-dihydro-1,4-benzodioxin-6-yl)-2-[(4S)-2,2,4-trimethylpyrrolidin-1-yl]pyridine-3-carboxamide], under setting [1], the concentration for an effect of 30% (EC30) was < 3 µM. On to `Cc1cc(C)c(Oc2nc3ccccc3cc2C(=O)NS(=O)(=O)c2cccc(N)n2)c(C)c1` [Compound 91, N-[(6-amino-2-pyridyl)sulfonyl]-2-(2,4,6-trimethylphenoxy)quinoline-3-carboxamide], for which, under setting [2], the EC30 result was “++ (“++” means between 3 uM and 10 uM)”.

On to `CCOc1ccc(C(=O)NS(=O)(=O)c2cccc(N)n2)c(Oc2c(C)cc(C)cc2C)n1` [Compound 637, N-[(6-amino-2-pyridyl)sulfonyl]-6-ethoxy-2-(2,4,6-trimethylphenoxy)pyridine-3-carboxamide], for which the EC30 result under setting [2] is “++ (“++” means between 3 uM and 10 uM)”. Regarding `CCCC1CCCN(c2nc(-c3ccc(OC(C)C)nc3)ccc2C(=O)NS(=O)(=O)c2cccc(N)n2)C1` (centres unmarked) [Compound 522, N-[(6-amino-2-pyridyl)sulfonyl]-6-(6-isopropoxy-3-pyridyl)-2-(3-propyl-1-piperidyl)pyridine-3-carboxamide], under setting [2], the EC30 entry was “+++ (“+++” means <3 uM)”. On to `COc1cc(F)ccc1-c1ccc(C(=O)NS(=O)(=O)c2cc[nH]n2)c(Oc2c(C)cc(C)cc2C)n1` [Compound 405, 6-(4-fluoro-2-methoxy-phenyl)-N-(1H-pyrazol-3-ylsulfonyl)-2-(2,4,6-trimethylphenoxy)pyridine-3-carboxamide], for which the concentration for an effect of 30% (EC30) entry under setting [2] was “+++ (“+++” means <3 uM)”. The same measure, in the same setting: the result for `CC(C)Oc1cc(F)cc(-c2ccc(C(=O)NS(=O)(=O)c3ccc[nH]c3=O)c(N3[C@H](C)CC[C@@H]3C)n2)c1` [Compound 487, 2-[(2S,5R)-2,5-dimethylpyrrolidin-1-yl]-6-(3-fluoro-5-isopropoxy-phenyl)-N-[(2-oxo-1H-pyridin-3-yl)sulfonyl]pyridine-3-carboxamide] reads “++ (“++” means between 3 uM and 10 uM)”. Regarding `Cc1cccc(-c2cnc(N3CC(C)CC3(C)C)c(C(=O)NS(=O)(=O)c3cccc(N)n3)c2)c1` (centres unmarked) [Compound 2184, N-[(6-amino-2-pyridyl)sulfonyl]-5-(m-tolyl)-2-(2,2,4-trimethylpyrrolidin-1-yl)pyridine-3-carboxamide], the EC30 under setting [1] was < 3 µM. Consider `CCOc1cccc(-c2ccc(C(=O)NS(=O)(=O)c3cccc(N)n3)c(Oc3c(C)cc(C)cc3C)n2)c1` [Compound 61, N-[(6-amino-2-pyridyl)sulfonyl]-6-(3-ethoxyphenyl)-2-(2,4,6-trimethylphenoxy)pyridine-3-carboxamide], for which, under setting [2], the EC30 entry is on record as “+++ (“+++” means <3 uM)”. In the case of `Cc1cc(C)c(Oc2nc(-c3ccc(F)cc3)ccc2C(=O)NS(=O)(=O)c2ccc[nH]c2=O)c(C)c1` [Compound 561, 6-(4-fluorophenyl)-N-[(2-oxo-1H-pyridin-3-yl)sulfonyl]-2-(2,4,6-trimethylphenoxy)pyridine-3-carboxamide], under setting [2], the EC30 entry is reported as “+++ (“+++” means <3 uM)”.

Consider `CC(C)Oc1ccc(-c2ccc(C(=O)NS(=O)(=O)c3cccc(N)n3)c(N3CCCC(C)C3C)n2)cn1` (centres unmarked) [Compound 353, N-[(6-amino-2-pyridyl)sulfonyl]-2-(2,3-dimethyl-1-piperidyl)-6-(6-isopropoxy-3-pyridyl)pyridine-3-carboxamide], for which the EC30 entry under setting [2] is listed as “+++ (“+++” means <3 uM)”. Consider `CCC(C)(C)C1CCCN1c1nc(-c2cc(F)cc(OCC(C)C)c2)ccc1C(=O)NS(=O)(=O)c1cccc(N)n1` (centres unmarked) [Compound 493, N-[(6-amino-2-pyridyl)sulfonyl]-2-[2-(1,1-dimethylpropyl)pyrrolidin-1-yl]-6-(3-fluoro-5-isobutoxy-phenyl)pyridine-3-carboxamide], for which the EC30 entry under setting [2] was “+++ (“+++” means <3 uM)”. In the case of `CC1CN(c2ncccc2C(=O)NS(=O)(=O)c2cccc(Nc3cccc(N(C)C)c3)n2)C(C)(C)C1` (centres unmarked) [Compound 2517, N—[[6-[3-(dimethylamino)anilino]-2-pyridyl]sulfonyl]-2-(2,2,4-trimethylpyrrolidin-1-yl)pyridine-3-carboxamide], under setting [1], the EC30 was < 3 µM. Regarding `CC(=O)c1ccc(Nc2cccc(S(=O)(=O)NC(=O)c3cccnc3N3CC(C)CC3(C)C)n2)cc1` (centres unmarked) [Compound 2328, N—[[6-(4-acetylanilino)-2-pyridyl]sulfonyl]-2-(2,2,4-trimethylpyrrolidin-1-yl)pyridine-3-carboxamide], under setting [1], the concentration for an effect of 30% (EC30) lay within 3 to 10 µM. Turning to `Cc1cccc(C)c1Cn1nc(C2CC3CCC2C3)cc1C(=O)NS(=O)(=O)c1cccc(N)c1` (centres unmarked) [Compound 370, N-(3-aminophenyl)sulfonyl-2-[(2,6-dimethylphenyl)methyl]-5-norbornan-2-yl-pyrazole-3-carboxamide], under setting [2], the EC30 result is listed as “+++ (“+++” means <3 uM)”.

For `C[C@@H]1CN(c2nc(-c3ccc4c(c3)OC(F)(F)O4)ccc2C(=O)NS(=O)(=O)c2cccc(N)n2)C(C)(C)C1` [Compound 2104, N-[(6-amino-2-pyridyl)sulfonyl]-6-(2,2-difluoro-1,3-benzodioxol-5-yl)-2-[(4S)-2,2,4-trimethylpyrrolidin-1-yl]pyridine-3-carboxamide], under setting [1], the EC30 was < 3 µM. For `Cc1cc(C)c(Oc2nc(-c3cnn(CC(C)C)c3)ccc2C(=O)NS(=O)(=O)c2cc[nH]n2)c(C)c1` [Compound 577, 6-(1-isobutylpyrazol-4-yl)-N-(1H-pyrazol-3-ylsulfonyl)-2-(2,4,6-trimethylphenoxy)pyridine-3-carboxamide], under setting [2], the EC30 entry is “++ (“++” means between 3 uM and 10 uM)”.

As to `CCOc1ncc(-c2ccc(C(=O)NS(=O)(=O)c3cccnc3N)c(N3C[C@@H](C)CC3(C)C)n2)cc1C` [Compound 2651, N-[(2-amino-3-pyridyl)sulfonyl]-6-(6-ethoxy-5-methyl-3-pyridyl)-2-[(4S)-2,2,4-trimethylpyrrolidin-1-yl]pyridine-3-carboxamide], the EC30 under setting [1] is < 3 µM. With `CC(C)COc1cc(F)cc(-c2ccc(C(=O)NS(=O)(=O)c3cccc(N)n3)c(N3[C@@H](C)CC[C@@H]3C)n2)c1` [Compound 458, N-[(6-amino-2-pyridyl)sulfonyl]-2-[(2S,5S)-2,5-dimethylpyrrolidin-1-yl]-6-(3-fluoro-5-isobutoxy-phenyl)pyridine-3-carboxamide], under setting [2], the 30% effect concentration (EC30) entry is “+++ (“+++” means <3 uM)”. For the compound `C[C@@H]1CN(c2nc(-c3cccc(F)c3F)ccc2C(=O)NS(=O)(=O)c2cccnc2N)C(C)(C)C1` [Compound 2291, N-[(2-amino-3-pyridyl)sulfonyl]-6-(2,3-difluorophenyl)-2-[(4S)-2,2,4-trimethylpyrrolidin-1-yl]pyridine-3-carboxamide], the EC30 under setting [1] was < 3 µM.

Regarding `CC1CN(c2ncccc2C(=O)NS(=O)(=O)c2cccc(OCc3ccc(C(F)(F)F)nc3)n2)C(C)(C)C1` (centres unmarked) [Compound 2476, N—[[6-[[6-(trifluoromethyl)-3-pyridyl]methoxy]-2-pyridyl]sulfonyl]-2-(2,2,4-trimethylpyrrolidin-1-yl)pyridine-3-carboxamide], under setting [1], the EC30 is < 3 µM. Turning to `C[C@@H]1CN(c2nc(-c3ccc4c(ccn4C)c3)ccc2C(=O)NS(=O)(=O)c2cccnc2N)C(C)(C)C1` [Compound 2352, N-[(2-amino-3-pyridyl)sulfonyl]-6-(1-methylindol-5-yl)-2-[(4S)-2,2,4-trimethylpyrrolidin-1-yl]pyridine-3-carboxamide], under setting [1], the EC30 is < 3 µM. As for `CC(C)Cn1ccc(-c2ccc(C(=O)NS(=O)(=O)c3cccc(N)n3)c(N3C[C@@H](C)CC3(C)C)n2)n1` [Compound 2114, N-[(6-amino-2-pyridyl)sulfonyl]-6-(1-isobutylpyrazol-3-yl)-2-[(4S)-2,2,4-trimethylpyrrolidin-1-yl]pyridine-3-carboxamide], the EC30 under setting [1] is < 3 µM. Take `Cc1cc(C)c(CN2CCCc3ccccc3C2C(=O)NS(=O)(=O)c2ccccc2)c(C)c1` (centres unmarked) [Compound 674, N-(benzenesulfonyl)-2-[(2,4,6-trimethylphenyl)methyl]-1,3,4,5-tetrahydro-2-benzazepine-1-carboxamide]: the EC30 result under setting [2] is recorded as “+++ (“+++” means <3 uM)”.

As a reminder, the EC30 is the concentration at which the effect reaches the 30% level.
